# Source: patent US12037317B2, “Synthesis of 3-hydroxybutyryl 3-hydroxybutyrate and related compounds” (Buck Institute for Research on Aging, priority 2018, dated 2024)
# pIC50: −log10 of the molar value. Entries after “also recorded” stand apart in the source; their conditions may differ.
# Columns and labels:
# [1] = humans on a normal diet, ingested orally; cited from earlier work
# [2] = ingested as a drink, compared to equivalent calories as carbohydrate; cited from earlier work
# [3] = tested on: T1, histone deacetylases (HDAC); experiment: in vitro HDAC assay (Fluor de Lys Green kit, Enzo); format: biochemical; conditions: sodium salt
# T1 construct: other: sodium salt; Fluor de Lys Green kit; same assay as S-BHB
# Procedure: (§1) The activity of S-BHB and R-BHB enantiomers in inhibiting histone deacetylases was tested. This is an in vitro HDAC assay performed using the sodium salt of S-BHB and R-BHB with a commercial assay kit, Fluor de Lys Green from Enzo.
# [4] = tested on: histone deacetylases (HDAC); experiment: in vitro HDAC assay (Fluor de Lys Green kit, Enzo); format: biochemical; conditions: comparison with a different, previously published assay
# Procedure: as §1
# [5] = disclosed in co-owned U.S. Provisional Application No. 62/535,754; cited from earlier work
"pIC50 ([3]; Fluor de Lys Green kit, read-out: HDAC inhibition IC50)",Compound,level of ketosis [1] [µM],performance in cycling time-trial test [2],inhibition of deacetylase activity (in words) [3],maximum inhibition of HDAC activity ([3]; same assay as S-BHB),"potency for HDAC inhibition relative to published potency of R-BHB in a different assay (Shimazu et al., Science 2013) [4] [fold]",serum half-life compared to the R-enantiomer [5]
,"C[C@@H](O)CCOC(=O)C[C@@H](C)O [R-3-hydroxybutyryl R-3-hydroxybutyrate, (R) 3-hydroxybutyryl (R) 3-hydroxy butyrate]",~6000,improved performance,,,,
,"C[C@@H](O)CC(=O)O [R-BHB, R-β-Hydroxybutyrate, reference compound]",,,partial inhibition,about 50%,,
2.14,"C[C@H](O)CC(=O)O [S-BHB, (S)-β-hydroxybutyric acid]",,,even more effective than R-BHB; also recorded: dose-dependent inhibition,,≤ 2,substantially improved
